This note sets out measurements from patent US20130296347A1, “Compositions and Methods for Prophylaxis and Treatment of Addictions” (Omeros Corporation, priority 2007, published 2013).

Molecules are shown by their SMILES.

Test [1] deals with CD mice. The conditions noted are these: morphine 30 mg/kg IP twice a day.
Method: Morphine hydrochloride was purchased from Salars (Milano, Italy). Morphine (30 mg/kg) was dissolved in NaCl 9% and was injected intraperitoneally (IP) twice a day at the indicated doses in a volume of 0.2 ml per mice.
Test [2] concerns CD mice. Description: Tail-flick test, morphine-induced analgesic tolerance. The settings on record: morphine 30 mg/kg IP twice a day. The format is in vivo, mouse. As for the experimental part:
All procedures were conducted in adherence to the European Community Council Directive for Care and Use of Laboratory Animals.
Mice were divided into 6 groups. Group 1 (n=8) received drug vehicles (veh/veh). […] Animals were treated twice daily (between 9:00 and 10:00 a.m. and 9:00 and 10:00 p.m.).
Morphine hydrochloride was purchased from Salars (Milano, Italy). Morphine (30 mg/kg) was dissolved in NaCl […] and was injected intraperitoneally (IP) twice a day at the indicated doses in a volume of 0.2 ml per mice. […] It was dissolved in distilled water and was administered per o.s. at the doses of 10 mg/kg and 30 mg/kg in a volume of 0.6 ml per mice.
Two different tests were used to monitor analgesic responses. The tail-flick test was performed 45 min after the morning injection of morphine, and the tail-immersion test was performed 45 min after the evening injection of morphine.
For the tail-flick test, each mouse was gently restrained in a soft tissue pocket, and the tail (1 cm from the tip) was exposed to a hot light beam. Latency for tail-flick was measured with a 6 seconds cut-off time. For the tail-immersion test, each mouse was restrained in a soft tissue pocket, and the distal half of the tail dipped into a water bath set at 52 C°. Latency for removing the tail from the hot water was measured with a 10 seconds cut-off time.
In general terms: Hot-plate and tail-flick tests time the reaction to a heat stimulus.

As for `CN1CC[C@]23c4c5ccc(O)c4O[C@H]2[C@@H](O)C=C[C@H]3[C@H]1C5` [morphine], the “tail-immersion analgesic effect on test day 9” value in the test with CD mice [1] is reported as “marginally significant”. The “tail-immersion latency on day 1, 3, 5, and 7” value with CD mice [1] (p<0.01) is “significantly increased”. Besides, the “time to tail-flick on test days 7 and 9” value with CD mice [2] is recorded as “non significant difference from controls”. In addition, the “time to tail-flick on day 1, 3 and 5” value in the test with CD mice [2] (p<0.01) is “significantly increased”.
